Results: paper PMC4077706, “Lifting the Mask: Identification of New Small Molecule Inhibitors of Uropathogenic Escherichia coli Group 2 Capsule Biogenesis” (PLoS ONE, 2014)
Where two headings read alike, the source gives them in different places.

Tests used:
[1] = Mouse
Adenosine A2A = biological target: T1, Adenosine A2A (Homo sapiens, UniProt P29274); assay: Radioligand binding 200610; details: 10 µM
T1 construct: host or cells: HEK-293 cells

Imidazoline I2, Central = assay: Radioligand binding 241000; set-up: species or system rat; details: 10 µM
Estrogen ERα = biological target: T2, Estrogen ERα (Homo sapiens, UniProt P03372); type: binding; details: 10 µM
T2 construct: host or cells: insect Sf9 cells

Sigma σ1 = Sigma σ1 (Homo sapiens, UniProt Q99720); type: binding; details: 10 µM
Glutamate, Kainate = assay: Radioligand binding 232700; set-up: species or system rat; details: 10 µM
Adrenergic α2A = biological target: T3, Adrenergic α2A (Homo sapiens, UniProt P08913); assay: Radioligand binding 203620; details: 10 µM
T3 construct: host or cells: insect Sf9 cells
Description: Vehicle: 1% DMSO Non-Specific Ligand: 10.0 µM Phentolamine
Incubation Buffer: 50 mM Tris-HCl, pH 7.4, 0. 5 mM Quantitation Method: Radioligand Binding
Bmax: 0.18 pmole/mg Protein *
Incubation Time/Temp: 60 minutes @ 25°C Specific Binding: 80% *
Bmax: 0.17 pmole/mg Protein *
Source: Human recombinant insect Sf9 cells Ligand: 1.0 nM [3H]
Vehicle: 1% DMSO Non-Specific Ligand: 10.0 µM WB-4101
Incubation Time/Temp: 60 minutes @ 25°C Specific Binding: 95% *
Incubation Buffer: 50 mM Tris-HCl, pH 7.4, 12.5 mM Quantitation Method: Radioligand Binding
Bmax: 4.60 pmole/mg Protein *
Source: Human recombinant CHO-K1 cells Ligand: 0.030 nM [125I] Cyanopindolol
Incubation Time/Temp: 2 hours @ 25°C Specific Binding: 95% *
Incubation Buffer: 50 mM Tris-HCl, pH 7.4, 1.4 mM Quantitation Method: Radioligand Binding
Ascorbic Acid, 0.001% BSA, 5 mM
EDTA, 1.5 mM CaCl2, 120 mM NaCl
Bmax: 0.072 pmole/mg Protein *

[2] = biological target: Calcium Channel L-Type, Dihydropyridine (Rattus norvegicus, UniProt P22002); type: binding; details: 10 µM
[3] = tested on: GABAA, Flunitrazepam, Central; assay: Radioligand binding 226600; set-up: species or system rat; details: 10 µM
Adrenergic β2 = biological target: T4, Adrenergic β2 (Homo sapiens, UniProt P07550); type: binding; details: 10 µM
T4 construct: host or cells: CHO cells

Histamine H1 = biological target: T5, Histamine H1 (Homo sapiens, UniProt P35367); type: binding; details: 10 µM
T5 construct: host or cells: CHO-K1 cells

[4] = biological target: Calcium Channel L-Type, Benzothiazepine (Rattus norvegicus, UniProt P22002); type: binding; details: 10 µM
Dopamine D4.2 = biological target: T6, Dopamine D4.2 (Homo sapiens, UniProt P21917, DEL265-296); type: binding; details: 10 µM
T6 construct: host or cells: CHO-K1 cells

Cannabinoid CB1 = Cannabinoid CB1 (Homo sapiens, UniProt P21554); type: binding; details: 10 µM
Potassium Channel hERG = Potassium Channel hERG (Homo sapiens, UniProt Q12809); details: 10 µM
Bradykinin B2 = Bradykinin B2 (Homo sapiens, UniProt P30411); type: binding; set-up: host or cells: Chem-1 cells; details: 10 µM
Histamine H3 = biological target: T7, Histamine H3 (Homo sapiens, UniProt Q9Y5N1); assay: Radioligand binding 239820; details: 10 µM
T7 construct: host or cells: CHO-K1 cells

Rolipram = assay: Radioligand binding 270000; set-up: species or system rat; details: 10 µM
Histamine H2 = Histamine H2 (Homo sapiens, UniProt P25021); assay: Radioligand binding 239710; set-up: host or cells: CHO-K1 cells; details: 10 µM
Adrenergic α1A = biological target: T8, Adrenergic α1A (Rattus norvegicus, UniProt P43140); assay: Radioligand binding 203100; details: 10 µM
T8 construct: Wistar Rat submaxillary gland; tissue Eurofins Panlabs (assay Cat #) 203100; host or cells: Wistar rat submaxillary gland

Tachykinin NK1 = biological target: T9, Tachykinin NK1 (Homo sapiens, UniProt P25103); assay: Radioligand binding 255520; details: 10 µM
T9 construct: host or cells: CHO

Transporter, GABA = biological target: T10, Transporter, GABA (Rattus norvegicus, UniProt P23978); assay: Radioligand binding 226400; details: 10 µM
T10 construct: Wistar Rat cerebral cortex; tissue Eurofins Panlabs 226400; host or cells: Wistar rat cerebral cortex

[5] = Mouse; remark: listed apart in the source
[6] = tested on: K1 antigen of E. coli UTI89; assay: K1 antigen dot blot; type: cell-based, Escherichia coli; details: 100 µM
Description: K1 antigen was detected by dot blot assays of culture extracts probed with anti-K1 H46 serum. The assay was performed as previously described. The experiment was repeated twice with similar results, and a representative dot blot is shown.

Prostanoid EP4 = biological target: T11, Prostanoid EP4 (Homo sapiens, UniProt P35408); assay: Radioligand binding 268420; details: 10 µM
T11 construct: host or cells: Chem-1

Adrenergic α1D = biological target: T12, Adrenergic α1D (Homo sapiens, UniProt P25100); type: binding; details: 10 µM
T12 construct: host or cells: HEK-293 cells

[7] = biological target: Nicotinic Acetylcholine α1, Bungarotoxin (Homo sapiens, UniProt P02708+P07510+Q07001); type: binding; details: 10 µM
Interleukin IL-1 = biological target: T13, Interleukin IL-1 (Mus musculus, UniProt P13504); assay: Radioligand binding 243520; details: 10 µM
T13 construct: Mouse 3T3-SWISS cells; host or cells: Swiss 3T3 mouse fibroblasts

[8] = biological target: Serotonin (5-Hydroxytryptamine) 5-HT2B (Homo sapiens, UniProt P41595); assay: Radioligand binding 271700; set-up: host or cells: CHO-K1; details: 10 µM
[9] = pre-treatment of bacteria without pretreatment of the mice

Bradykinin B2, sequence (P30411 whole entry): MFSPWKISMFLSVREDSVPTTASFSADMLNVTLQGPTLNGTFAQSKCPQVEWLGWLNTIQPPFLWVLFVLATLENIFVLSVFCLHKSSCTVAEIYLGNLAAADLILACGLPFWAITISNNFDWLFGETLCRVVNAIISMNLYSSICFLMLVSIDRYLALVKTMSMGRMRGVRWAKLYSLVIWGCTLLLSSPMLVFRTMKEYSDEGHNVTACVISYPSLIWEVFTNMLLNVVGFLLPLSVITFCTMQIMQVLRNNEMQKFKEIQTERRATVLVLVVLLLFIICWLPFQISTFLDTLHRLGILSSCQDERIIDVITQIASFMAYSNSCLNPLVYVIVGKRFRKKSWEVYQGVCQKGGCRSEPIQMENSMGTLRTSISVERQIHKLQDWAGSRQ
Calcium Channel L-Type, Benzothiazepine, sequence (P22002 whole entry): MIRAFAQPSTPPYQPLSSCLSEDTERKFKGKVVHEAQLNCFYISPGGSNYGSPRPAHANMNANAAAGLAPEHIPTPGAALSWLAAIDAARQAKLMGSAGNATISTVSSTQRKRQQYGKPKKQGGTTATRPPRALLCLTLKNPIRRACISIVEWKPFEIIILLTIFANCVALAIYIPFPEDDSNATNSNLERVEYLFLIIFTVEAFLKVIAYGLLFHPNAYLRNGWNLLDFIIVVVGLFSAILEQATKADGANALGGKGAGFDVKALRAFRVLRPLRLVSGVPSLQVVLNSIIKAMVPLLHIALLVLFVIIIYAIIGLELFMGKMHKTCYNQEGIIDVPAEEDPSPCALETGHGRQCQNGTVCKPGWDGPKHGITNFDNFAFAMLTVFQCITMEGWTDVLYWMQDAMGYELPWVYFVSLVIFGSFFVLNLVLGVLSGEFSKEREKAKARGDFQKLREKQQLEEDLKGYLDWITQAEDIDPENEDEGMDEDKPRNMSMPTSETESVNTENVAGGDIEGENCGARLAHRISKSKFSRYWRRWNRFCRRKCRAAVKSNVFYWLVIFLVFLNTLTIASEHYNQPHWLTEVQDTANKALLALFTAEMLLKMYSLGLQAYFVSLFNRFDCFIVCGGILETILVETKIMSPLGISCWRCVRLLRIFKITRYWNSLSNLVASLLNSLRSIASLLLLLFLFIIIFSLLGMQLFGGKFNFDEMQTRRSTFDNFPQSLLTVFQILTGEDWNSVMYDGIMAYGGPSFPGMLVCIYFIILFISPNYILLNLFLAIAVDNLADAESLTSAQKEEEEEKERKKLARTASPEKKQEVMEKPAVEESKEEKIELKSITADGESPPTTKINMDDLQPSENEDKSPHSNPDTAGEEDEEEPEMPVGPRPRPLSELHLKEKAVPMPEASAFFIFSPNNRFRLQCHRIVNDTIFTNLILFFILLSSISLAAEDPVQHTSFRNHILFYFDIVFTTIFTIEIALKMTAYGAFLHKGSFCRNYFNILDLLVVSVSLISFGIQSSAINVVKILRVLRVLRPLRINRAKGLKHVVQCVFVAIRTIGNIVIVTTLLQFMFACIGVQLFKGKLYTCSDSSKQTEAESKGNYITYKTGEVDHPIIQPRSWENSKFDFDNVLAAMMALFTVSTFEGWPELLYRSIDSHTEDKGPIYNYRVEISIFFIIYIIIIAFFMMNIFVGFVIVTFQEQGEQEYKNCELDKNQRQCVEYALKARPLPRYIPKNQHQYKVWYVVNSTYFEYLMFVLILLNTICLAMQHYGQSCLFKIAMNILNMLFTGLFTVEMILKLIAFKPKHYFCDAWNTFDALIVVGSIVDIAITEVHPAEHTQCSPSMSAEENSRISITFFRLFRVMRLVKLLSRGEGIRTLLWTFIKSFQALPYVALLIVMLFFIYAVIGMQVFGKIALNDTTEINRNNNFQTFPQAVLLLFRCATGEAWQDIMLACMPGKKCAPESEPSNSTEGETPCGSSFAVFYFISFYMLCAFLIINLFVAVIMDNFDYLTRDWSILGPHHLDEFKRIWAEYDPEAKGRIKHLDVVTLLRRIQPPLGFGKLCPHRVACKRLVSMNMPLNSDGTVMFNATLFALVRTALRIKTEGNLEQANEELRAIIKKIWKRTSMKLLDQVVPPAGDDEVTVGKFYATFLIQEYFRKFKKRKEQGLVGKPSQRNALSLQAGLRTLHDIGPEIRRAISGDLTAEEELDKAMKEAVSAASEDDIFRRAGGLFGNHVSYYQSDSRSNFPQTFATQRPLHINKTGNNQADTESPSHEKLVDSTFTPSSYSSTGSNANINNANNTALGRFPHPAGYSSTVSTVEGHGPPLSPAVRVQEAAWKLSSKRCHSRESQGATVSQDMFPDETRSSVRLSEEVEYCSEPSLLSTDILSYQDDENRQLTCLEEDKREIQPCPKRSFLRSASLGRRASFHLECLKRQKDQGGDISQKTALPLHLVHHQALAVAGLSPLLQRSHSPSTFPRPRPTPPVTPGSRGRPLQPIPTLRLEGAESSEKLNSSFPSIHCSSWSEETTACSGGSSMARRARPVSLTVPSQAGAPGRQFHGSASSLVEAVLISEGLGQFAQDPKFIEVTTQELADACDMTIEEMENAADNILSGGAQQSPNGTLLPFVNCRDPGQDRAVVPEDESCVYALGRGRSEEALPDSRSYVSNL
Calcium Channel L-Type, Dihydropyridine, sequence (P22002 whole entry): as above
T7 sequence (Q9Y5N1 whole entry): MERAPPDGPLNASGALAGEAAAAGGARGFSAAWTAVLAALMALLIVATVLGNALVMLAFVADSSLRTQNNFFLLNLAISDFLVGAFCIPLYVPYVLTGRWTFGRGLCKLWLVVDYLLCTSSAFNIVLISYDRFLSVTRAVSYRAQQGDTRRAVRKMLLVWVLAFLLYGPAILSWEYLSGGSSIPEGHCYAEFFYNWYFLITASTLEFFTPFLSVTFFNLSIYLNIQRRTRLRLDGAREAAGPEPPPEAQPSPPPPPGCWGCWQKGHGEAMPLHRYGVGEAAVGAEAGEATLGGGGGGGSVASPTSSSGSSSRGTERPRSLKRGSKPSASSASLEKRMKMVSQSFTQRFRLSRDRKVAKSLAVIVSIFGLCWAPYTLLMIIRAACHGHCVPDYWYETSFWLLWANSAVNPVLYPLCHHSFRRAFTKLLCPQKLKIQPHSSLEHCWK
T4 sequence (P07550 whole entry): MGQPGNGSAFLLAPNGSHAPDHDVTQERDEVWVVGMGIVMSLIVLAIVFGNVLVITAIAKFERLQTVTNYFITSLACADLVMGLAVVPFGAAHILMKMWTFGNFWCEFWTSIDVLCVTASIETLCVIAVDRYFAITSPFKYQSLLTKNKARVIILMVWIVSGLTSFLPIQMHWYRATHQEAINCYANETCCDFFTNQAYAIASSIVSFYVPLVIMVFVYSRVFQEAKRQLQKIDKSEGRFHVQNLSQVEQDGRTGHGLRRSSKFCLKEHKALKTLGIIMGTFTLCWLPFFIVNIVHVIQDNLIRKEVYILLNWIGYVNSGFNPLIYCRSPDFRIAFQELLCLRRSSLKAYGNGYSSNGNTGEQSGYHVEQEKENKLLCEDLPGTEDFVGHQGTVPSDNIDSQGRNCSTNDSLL
T13 sequence (P13504 20-576): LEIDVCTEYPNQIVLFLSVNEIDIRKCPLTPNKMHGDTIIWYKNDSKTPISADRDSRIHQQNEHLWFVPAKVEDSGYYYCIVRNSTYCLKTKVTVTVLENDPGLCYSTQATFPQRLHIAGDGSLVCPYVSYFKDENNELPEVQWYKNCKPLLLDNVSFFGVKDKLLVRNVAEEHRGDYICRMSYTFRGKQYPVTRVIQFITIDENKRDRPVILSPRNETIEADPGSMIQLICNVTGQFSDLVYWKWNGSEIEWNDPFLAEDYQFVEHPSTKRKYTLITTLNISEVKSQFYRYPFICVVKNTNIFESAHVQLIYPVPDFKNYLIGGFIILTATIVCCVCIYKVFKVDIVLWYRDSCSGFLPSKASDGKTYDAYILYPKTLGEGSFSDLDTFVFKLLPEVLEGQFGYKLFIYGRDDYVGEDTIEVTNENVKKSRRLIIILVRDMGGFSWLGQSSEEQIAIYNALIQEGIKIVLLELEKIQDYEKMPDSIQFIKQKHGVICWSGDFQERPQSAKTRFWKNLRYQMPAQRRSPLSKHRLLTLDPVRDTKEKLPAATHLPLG
T5 sequence (P35367 whole entry): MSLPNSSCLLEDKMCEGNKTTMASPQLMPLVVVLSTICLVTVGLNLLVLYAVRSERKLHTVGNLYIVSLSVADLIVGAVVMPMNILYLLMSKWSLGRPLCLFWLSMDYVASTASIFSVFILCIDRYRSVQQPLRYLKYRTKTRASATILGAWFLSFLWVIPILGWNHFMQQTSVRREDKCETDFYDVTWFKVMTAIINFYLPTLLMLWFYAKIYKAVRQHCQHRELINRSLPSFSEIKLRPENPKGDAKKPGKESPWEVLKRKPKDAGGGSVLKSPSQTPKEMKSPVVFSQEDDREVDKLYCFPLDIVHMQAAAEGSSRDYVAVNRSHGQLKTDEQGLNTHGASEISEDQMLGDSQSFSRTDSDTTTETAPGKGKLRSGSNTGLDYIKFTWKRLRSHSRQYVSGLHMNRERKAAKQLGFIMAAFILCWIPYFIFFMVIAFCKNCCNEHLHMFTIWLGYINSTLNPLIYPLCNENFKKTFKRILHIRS
T11 sequence (P35408 whole entry): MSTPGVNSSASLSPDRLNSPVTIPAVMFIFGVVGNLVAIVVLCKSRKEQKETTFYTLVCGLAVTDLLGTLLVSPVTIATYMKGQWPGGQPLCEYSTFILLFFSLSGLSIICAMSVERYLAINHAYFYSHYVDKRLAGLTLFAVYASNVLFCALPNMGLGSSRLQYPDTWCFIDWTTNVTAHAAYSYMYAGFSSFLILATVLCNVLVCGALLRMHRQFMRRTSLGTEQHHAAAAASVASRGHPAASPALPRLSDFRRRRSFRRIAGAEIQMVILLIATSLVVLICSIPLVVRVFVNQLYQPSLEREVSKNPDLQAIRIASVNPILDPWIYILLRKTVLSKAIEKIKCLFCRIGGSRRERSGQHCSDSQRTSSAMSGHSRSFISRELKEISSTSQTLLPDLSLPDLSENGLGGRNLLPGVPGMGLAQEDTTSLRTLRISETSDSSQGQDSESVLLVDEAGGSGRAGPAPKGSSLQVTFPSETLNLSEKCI

CCOc1ccc(-c2cc(NC(=O)c3c(F)cccc3F)c(C(=O)O)s2)cc1 [DU011]
Hepatic Microsome Stability, percent remaining at 1 hr [1]: 74.32%
% Inh. (Adenosine A2A): -6%
PAMPA Permeability Pe (Donor pH 5.0, acceptor pH 7.4): 14 ×10⁻⁶ cm/s
PAMPA Permeability Pe (Donor pH 6.2, acceptor pH 7.4): 209 ×10⁻⁶ cm/s
PAMPA Permeability Pe (Donor pH 7.4, acceptor pH 7.4): 52 ×10⁻⁶ cm/s
% Inh. (Imidazoline I2, Central): -23%
body weight (E. coli UTI89; [9]): ongoing weight loss among surviving animals
survival (E. coli UTI89; [9]): 50%
body weight (E. coli UTI89; pretreatment of the bacteria and mice): recovery of pre-infection weights
survival (E. coli UTI89; pretreatment of the bacteria and mice, 48 hrs, 10^8 CFU UTI89 i.p.): 100%
tolerability in mice (E. coli UTI89; subcutaneous 100 µL of 1 mg/ml twice daily): without evident side effects
body weight (E. coli UTI89; subcutaneous DU011 and untreated UTI89): stabilization of weights at the end of the experiment
survival (E. coli UTI89; subcutaneous DU011 and untreated UTI89, 48 hrs): 80%
% Inh. (Estrogen ERα): 13%
% Inh. (Sigma σ1): 9%
% Inh. (Glutamate, Kainate): 3%
% Inh. (Adrenergic α2A): -14%
% Inh. [2]: 18%
% Inh. [3]: 12%
% Inh. (Adrenergic β2): 8%
% Inh. (Histamine H1): -16%
% Inh. [4]: -1%
% Inh. (Dopamine D4.2): 0%
% Inh. (Cannabinoid CB1): 20%
% Inh. (Potassium Channel hERG): 9%
% Inh. (Bradykinin B2): 4%
% Inh. (Histamine H3): 13%
% Inh. (Rolipram): 3%
% Inh. (Histamine H2): 2%
% Inh. (Adrenergic α1A): -3%
% Inh. (Tachykinin NK1): 7%
% Inh. (Transporter, GABA): -4%
Plasma Stability, percent remaining at 3 hrs [5]: 78.39%
K1 reactive material, whole-cell anti-K1 dot blot [6]: reduces K1 reactive material to levels comparable to those of genetic capsule mutants
% Inh. (Prostanoid EP4): -4%
% Inh. (Adrenergic α1D): 7%
% Inh. [7]: 8%
% Inh. (Interleukin IL-1): 4%
% Inh. [8]: 19%
